# In patent publication US20230104936A1, “TRPML MODULATORS” (Casma Therapeutics, Inc., priority 2019, published 2023):
# Test system: TFEB
# Assay: TFEB nuclear translocation assay, HeLa wt cells
# Assay type: cell-based
# Settings: Homo sapiens, HeLa, 2 h, 2 hrs compound treatment, Table 1 does not say HeLa wt or TRPML1 KO
# Outline: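 AC50 derived from the ratio of nuclear to perinuclear ring (−5 μm) anti-TFEB immunofluorescence, imaged at ×20 over four fields per well. HeLa wt or TRPML1 KO cells were exposed to compounds for 2 hrs at 37° C, then PFA-fixed and counterstained with Hoechst.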
row,SMILES,AC50 [µM]
1,"O=S(=O)(Nc1ccccc1N1CCC(c2ccc(Cl)cc2F)CC1)c1ccccc1CO [Compound A-106, N-{2-[4-(4-chloro-2-fluorophenyl)piperidin-1-yl]phenyl}-2-(hydroxymethyl)benzene-1-sulfonamide]",≥ 10
2,"Cc1ccc(S(=O)(=O)N(C)c2ccccc2N2CCC(c3ccc(Cl)cc3F)CC2)cc1 [Compound A-107, N-{2-[4-(4-chloro-2-fluorophenyl)piperidin-1-yl]phenyl}-N,4-dimethylbenzene-1-sulfonamide]",≥ 10
3,"CN(C)S(=O)(=O)c1ccc(NS(=O)(=O)c2ccccc2N2CCC(c3ccc(Cl)cc3F)CC2)cc1 [Compound A-108, 4-((2-(4-(4-chloro-2-fluorophenyl)piperidin-1-yl)phenyl)sulfonamido)-N,N-dimethylbenzenesulfonamide]",≤ 2
4,"CN(C)S(=O)(=O)c1ccc(S(=O)(=O)Nc2cccnc2N2CCC(c3ccc(Cl)cc3F)CC2)cc1 [Compound A-109, N4-{2-[4-(4-chloro-2-fluorophenyl)piperidin-1-yl]pyridin-3-yl}-N1,N1-dimethylbenzene-1,4-disulfonamide]",≤ 2
5,"COc1ccc(S(=O)(=O)Nc2cccnc2N2CCN(c3ncc(Cl)cc3F)CC2)cc1 [Compound A-110, N-{2-[4-(5-chloro-3-fluoropyridin-2-yl)piperazin-1-yl]pyridin-3-yl}-4-methoxybenzene-1-sulfonamide]",≥ 10
6,"Cc1ccc(NS(=O)(=O)c2ccccc2N2CCC(c3ccc(Cl)cc3F)CC2)cc1 [Compound A-111, 2-(4-(4-chloro-2-fluorophenyl)piperidin-1-yl)-N-(p-tolyl)benzenesulfonamide]",≥ 10
7,"CN(C)S(=N)(=O)c1ccc(S(=O)(=O)Nc2ccccc2N2CCC(c3ccc(Cl)cc3F)CC2)cc1 (centres unmarked) [Compound A-112, 4-({2-[4-(4-chloro-2-fluorophenyl)piperidin-1-yl]phenyl}sulfamoyl)-N,N-dimethylbenzene-1-sulfonoimidamide]",≤ 2
8,"O=S(=O)(Nc1cccc(N2CCC(c3ccc(Cl)cc3F)CC2)c1)c1ccccc1F [Compound A-114, N-{3-[4-(4-chloro-2-fluorophenyl)piperidin-1-yl]phenyl}-2-fluorobenzene-1-sulfonamide]",≥ 10
9,"CN(C)S(=O)(=O)c1ccc(S(=O)(=O)Nc2ccccc2N2CCC(O)(c3ccc(Cl)cc3F)CC2)cc1 [Compound A-115, N4-{2-[4-(4-chloro-2-fluorophenyl)-4-hydroxypiperidin-1-yl]phenyl}-N1,N1-dimethylbenzene-1,4-disulfonamide]",≤ 2
10,"O=S(=O)(Nc1cccnc1N1CCN(c2ncc(Cl)cc2F)CC1)c1ccc(OC(F)(F)F)cc1 [Compound A-116, N-{2-[4-(5-chloro-3-fluoropyridin-2-yl)piperazin-1-yl]pyridin-3-yl}-4-(trifluoromethoxy)benzene-1-sulfonamide]",≥ 10
11,"COc1ccc(S(=O)(=O)Nc2cccnc2N2CCN(c3ccc(C#N)cc3F)CC2)cc1 [Compound A-117, N-{2-[4-(4-cyano-2-fluorophenyl)piperazin-1-yl]pyridin-3-yl}-4-methoxybenzene-1-sulfonamide]",≥ 10
12,"COc1ccc(S(=O)(=O)Nc2ccccc2N2CCC(c3ccc(F)cc3F)CC2)nc1 [Compound A-118, N-{2-[4-(2,4-difluorophenyl)piperidin-1-yl]phenyl}-5-methoxypyridine-2-sulfonamide]",2.01 to 8
13,"Cc1ccc(S(=O)(=O)Nc2ccccc2N2[C@@H]3CC[C@H]2C[C@H](c2ccccc2F)C3)cc1 [Compound A-119, N-{2-[(1R,3S,5S)-3-(2-fluorophenyl)-8-azabicyclo[3.2.1]octan-8-yl]phenyl}-4-methylbenzene-1-sulfonamide]",≤ 2
14,"Cc1ccc(S(=O)(=O)Nc2ccccc2N2[C@@H]3CC[C@H]2C[C@@H](c2ccccc2F)C3)cc1 [Compound A-120, N-{2-[(1R,3R,5S)-3-(2-fluorophenyl)-8-azabicyclo[3.2.1]octan-8-yl]phenyl}-4-methylbenzene-1-sulfonamide]",≤ 2
15,"C[C@@H]1CN(c2ccccc2NS(=O)(=O)c2ccc(S(=O)(=O)N(C)C)cc2)C[C@H](C)N1c1ccc(Cl)cn1 [Compound A-121, N4-{2-[(3R,5S)-4-(5-chloropyridin-2-yl)-3,5-dimethylpiperazin-1-yl]phenyl}-N1,N1-dimethylbenzene-1,4-disulfonamide]",≤ 2
16,"O=S(=O)(Nc1cccc(N2CCC(c3ccc(Cl)cc3F)CC2)c1)c1cccc(F)c1 [Compound A-122, N-{3-[4-(4-chloro-2-fluorophenyl)piperidin-1-yl]phenyl}-3-fluorobenzene-1-sulfonamide]",≥ 10
17,"COc1ccc(S(=O)(=O)Nc2ccccc2N2CCC(c3ccc(F)cc3F)CC2)cn1 [Compound A-123, N-{2-[4-(2,4-difluorophenyl)piperidin-1-yl]phenyl}-6-methoxypyridine-3-sulfonamide]",2.01 to 8
18,"CS(=O)(=O)c1ccc(S(=O)(=O)Nc2ccccc2N2CCC(c3c(F)cccc3F)CC2)cc1 [Compound A-124, N-{2-[4-(2,6-difluorophenyl)piperidin-1-yl]phenyl}-4-methanesulfonylbenzene-1-sulfonamide]",≤ 2
19,"O=S(=O)(Nc1cccc(N2CCC(c3ccc(Cl)cc3F)CC2)c1)c1ccc(F)cc1 [Compound A-128, N-{3-[4-(4-chloro-2-fluorophenyl)piperidin-1-yl]phenyl}-4-fluorobenzene-1-sulfonamide]",≥ 10
20,"CN(C)S(=O)(=O)c1ccc(S(=O)(=O)Nc2cc(Cl)nnc2N2CCC(c3ccc(Cl)cc3F)CC2)cc1 [Compound A-129, N4-{6-chloro-3-[4-(4-chloro-2-fluorophenyl)piperidin-1-yl]pyridazin-4-yl}-N1,N1-dimethylbenzene-1,4-disulfonamide]",≥ 10
21,"COc1ccc(S(=O)(=O)Nc2nccnc2N2CCN(c3ncc(Cl)cc3F)CC2)cc1 [Compound A-130, N-{3-[4-(5-chloro-3-fluoropyridin-2-yl)piperazin-1-yl]pyrazin-2-yl}-4-methoxybenzene-1-sulfonamide]",≥ 10
22,"CS(=O)(=O)c1ccc(S(=O)(=O)Nc2ccccc2N2CCC(c3ncc(F)cc3F)CC2)cc1 [Compound A-131, N-{2-[4-(3,5-difluoropyridin-2-yl)piperidin-1-yl]phenyl}-4-methanesulfonylbenzene-1-sulfonamide]",≤ 2
23,"CS(=O)(=O)c1ccc(S(=O)(=O)Nc2ccccc2N2CCC(c3c(F)cc(F)cc3F)CC2)cc1 [Compound A-132, 4-methanesulfonyl-N-{2-[4-(2,4,6-trifluorophenyl)piperidin-1-yl]phenyl}benzene-1-sulfonamide]",≤ 2
24,Cc1ccc(S(=O)(=O)c2ccccc2N2CCC(c3ccc(Cl)cc3F)CC2)cc1 [Compound A-133],≥ 10
25,"CN(C)S(=O)(=O)c1ccc(S(=O)(=O)Nc2cccc(N3CCC(c4ccc(Cl)cc4F)CC3)n2)cc1 [Compound A-134, N4-{6-[4-(4-chloro-2-fluorophenyl)piperidin-1-yl]pyridin-2-yl}-N1,N1-dimethylbenzene-1,4-disulfonamide]",≥ 10
26,"COc1ccc(S(=O)(=O)Nc2ncccc2N2CCN(c3ncc(Cl)cc3F)CC2)cc1 [Compound A-135, N-{3-[4-(5-chloro-3-fluoropyridin-2-yl)piperazin-1-yl]pyridin-2-yl}-4-methoxybenzene-1-sulfonamide]",≥ 10
